# Measurements from patent US8129557B2, “Phosphonic acid diester derivative and method for producing thereof” (priority 2005, dated 2012).
# Marks after values point to notes of the source that are not given here.
# What was measured:
# [1] = target: T1, E-coli GGT (Escherichia coli, UniProt P18956); assay: Second-order rate constant kon of E-coli GGT inactivation (continuous or discontinuous assay); assay type: biochemical, Escherichia coli K-12; conditions: for kon E-coli GGT: second-order rate constant for enzyme inactivation, pH 5.5, 25° C.
# T1 construct: was used as a purified enzyme of E-coli GGT; made in house
# T1 sequence (P18956 26-390 limits assumed): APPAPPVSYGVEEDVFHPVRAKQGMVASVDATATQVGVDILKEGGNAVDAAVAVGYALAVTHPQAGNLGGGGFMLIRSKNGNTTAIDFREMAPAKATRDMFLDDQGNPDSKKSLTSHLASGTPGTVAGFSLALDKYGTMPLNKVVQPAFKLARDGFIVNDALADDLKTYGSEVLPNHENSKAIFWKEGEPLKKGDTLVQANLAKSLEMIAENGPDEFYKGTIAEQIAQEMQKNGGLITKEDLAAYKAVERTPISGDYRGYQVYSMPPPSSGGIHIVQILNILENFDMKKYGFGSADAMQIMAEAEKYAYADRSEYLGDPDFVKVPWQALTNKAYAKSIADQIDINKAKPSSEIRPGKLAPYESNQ
# T1 sequence (P18956 391-580 limits assumed): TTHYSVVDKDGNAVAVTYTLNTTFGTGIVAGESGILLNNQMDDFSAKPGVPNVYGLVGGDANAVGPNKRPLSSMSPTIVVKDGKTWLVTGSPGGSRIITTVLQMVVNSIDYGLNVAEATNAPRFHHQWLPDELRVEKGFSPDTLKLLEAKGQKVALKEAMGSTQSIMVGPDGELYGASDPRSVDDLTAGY
# Text: (§1) Purified enzyme of E-coli GGT and crude enzyme of human GGT were employed as GGT samples for an inhibition experiment. The enzyme whose physicochemical properties are described in the Document (Hideyuki Suzuki, Hidehiko Kumagai, Tatsurokukro Tochikura “gamma-Glutamyltranspeptidase from Escherichia coli K-12: Purification and Properties” Journal of Bacteriology, December 1986, Vol. 168, No. 3, p. 1325-1331) was used as a purified enzyme of E-coli GGT. Enzyme [HC-GTP (product number), 603AA (lot number)] manufactured by Asahi Kasei Co., Ltd. was used as a crude enzyme of human GGT. The crude enzyme of human GGT contained a large amount of bovine serum albumin (BSA) to stabilize the enzyme, and the GGT concentration was 1% or lower.
# In the hydrolytic assay of E. coli GGT, 10 μL of a […] enzyme solution was added to a 100 mM succinic acid-sodium hydroxide buffer solution (pH 5.5) in a total volume of 1 mL containing 100 μL of 2 μM substrate aqueous solution. The product, 7-amino-4-methylcoumarin (AMC), released along with the enzyme reaction was traced continuously at 25° C. using a fluorospectrophotometer F-2000 manufactured by Hitachi Ltd. (excitation wavelength: 350 nm, emission wavelength: 440 nm). The AMC concentration was separately measured by forming a calibration curve showing the relation of the fluorescence intensity (F) and the concentration (C) using standard solutions and was calculated from the relational expression (1) of the fluorescence intensity alteration (ΔF) and concentration alteration (ΔC).
# (§2) Next, a second-order rate constant for enzyme inactivation kon was measured by either a continuous assay or a discontinuous assay. Both of the continuous and discontinuous assay for measuring inhibitory activity to GGT were carried out under a pseudo-first-order reaction condition.
# (§3) In the continuous assay, while the temperature was kept at 25° C., the 100 mM succinic acid-sodium hydroxide buffer solutions (pH 5.5) containing an inhibitor in various concentrations and the substrate were preincubated for equilibrium. Herein, 0.2 μM of the substrate was used for the case of E-coli GGT and 0.4 μM of the substrate was used for the case of human GGT. Thereafter, the enzyme solution of the E-coli GGT was added in a manner that the final concentration became 0.04 nM and also the human GGT crude enzyme solution was added in a manner that the final concentration became 5 μg/mL. Accordingly, the reaction was started and the release of AMC (increase of the fluorescence intensity) was continuously traced for 10 minutes.
# (§4) The fluorescence intensity data obtained from the respective curves was applied to the following pseudo-first-order rate equation (2) and the observed pseudo-first-order rate constant for enzyme inactivation (kobs) was calculated by nonlinear regression analysis [Stein, R. L. et al. Biochemistry 26, 2682-2689 (1987)].
# (§5) [Equation 2] [P]=[P]∞[1−exp(−kobst)] (2)
# (§6) When the kobs was plotted against to the inhibitor concentration ([I]), a linear relation was obtained until the maximum extent of the experimentally possible inhibitor concentration. Therefore, the second-order rate constant for enzyme inactivation kon was calculated using the following equation (3) deduced from the kinetic mechanism.
# (§7) [drawing 37] [Equation 3] kobs=kon[I]/(1+[S]/Km) (3)
# (§8) Herein, S denotes 7-(γ-L-glutamylamino)-4-methylcoumarin. The substrate concentration [S] for E-coli GGT is 0.2 μM and the Km value is 0.2 μM. […] The kinetic data was obtained by nonlinear regression analysis using Kaleida graph, a program produced by Synergy Software.
# Further, in the discontinuous assay, an inhibitor in various concentrations was dissolved in 100 mM succinic acid-sodium hydroxide buffer solution (pH 5.5) and the enzyme solution was added to the resulting buffer solutions. […]
# [2] = target: T2, human GGT (Homo sapiens, UniProt P19440); assay: Second-order rate constant kon of human GGT inactivation (continuous or discontinuous assay); assay type: biochemical; conditions: for kon Human GGT: second-order rate constant for enzyme inactivation, pH 5.5, 25° C.; for plot of log kon (human GGT) against pKa of aryl group, FIG. 4: position relative to the straight line
# T2 construct: purchased Asahi Kasei Co., Ltd. HC-GTP (lot 603AA)
# Text: as §1
# In the hydrolytic assay of human GGT, the measurement was carried out in the same manner as that in the hydrolytic assay of E-coli GGT, except that the substrate concentration was changed to […] and therefore, the explanation of the common portions was omitted.
# as §2, §3, §4, §5, §6, §7, §8
# Further, in the discontinuous assay, an inhibitor in various concentrations was dissolved in 100 mM succinic acid-sodium hydroxide buffer solution (pH 5.5) and the enzyme solution was added to the resulting buffer solutions. Herein, in the case of E-coli GGT, the enzyme solution was added in a manner that the final concentration became 0.4 nM and also the human GGT crude enzyme solution was added in a manner that the final concentration became 0.5 mg/mL. Accordingly, the reaction of the inhibitor and each GGT was conducted at 25° C. An aliquot (10 μL) of each of the reaction solutions were sampled at every specified time to measure the remaining enzyme activity by the above-mentioned enzyme activation method. The remaining enzyme activity at every time was analyzed by nonlinear regression using the pseudo-first-order rate equation (4) of enzyme inactivation to calculate the value of kobs.
# [Equation 4] αt/α0=exp(−kobst) (4) […]
# [3] = Chemical stability: hydrolysis ratio after storage in water at room temperature; assay type: physicochemical
# Procedure: Herein, the hydrolysis ratios of the reactive compounds of Examples 1 to 11 were measured after the respective compounds were stored in water at room temperature. In this connection, the compounds other than the compound of Example 10 were stored in water for 12 hours and the compound of Example 10 was stored in water for 112 hours.
# [4] = Hydrolysis ratio of Example 7 in alkaline, neutral or acidic solvent; assay type: physicochemical; conditions: for Hydrolysis ratio (%): after 12 hours
# Procedure: Herein, the compound of Example 7 was dissolved in a solvent shown in Table 4 and kept at 23.5° C., and the hydrolysis ratio of the compound of Example 7 was measured after 12 hours.
# [5] = stored in water at room temperature for 12 hours
# T2 sequence (P19440 1-380 limits assumed): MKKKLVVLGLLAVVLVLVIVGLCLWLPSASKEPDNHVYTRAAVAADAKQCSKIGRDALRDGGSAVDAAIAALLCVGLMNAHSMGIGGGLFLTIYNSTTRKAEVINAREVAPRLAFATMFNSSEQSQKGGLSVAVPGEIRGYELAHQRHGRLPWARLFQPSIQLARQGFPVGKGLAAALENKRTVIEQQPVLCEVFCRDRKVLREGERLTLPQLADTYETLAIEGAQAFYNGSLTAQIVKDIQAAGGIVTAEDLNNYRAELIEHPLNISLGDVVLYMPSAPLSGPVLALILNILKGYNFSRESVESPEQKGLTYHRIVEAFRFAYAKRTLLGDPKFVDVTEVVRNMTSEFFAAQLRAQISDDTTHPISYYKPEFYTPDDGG
# T2 sequence (P19440 381-569 limits assumed): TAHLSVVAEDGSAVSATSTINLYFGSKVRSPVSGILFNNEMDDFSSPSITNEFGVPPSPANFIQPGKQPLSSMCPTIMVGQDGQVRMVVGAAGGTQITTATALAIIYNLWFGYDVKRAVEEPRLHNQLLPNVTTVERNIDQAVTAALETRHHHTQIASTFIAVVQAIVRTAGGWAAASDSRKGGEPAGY
SMILES,kon E-coli GGT [1] [M^−1S^−1],kon Human GGT [2] [M^−1S^−1],"Hydrolysis ratio (%) [3, 5] [%]",other results
"COP(=O)(CCC(N)C(=O)O)Oc1ccc(C(=O)O)cc1 (stereo not shown) [Example 13, 2-amino-4-[4-carboxyphenyl(methyl)phosphono]butanoic Acid]",3200,5.2,,
"COP(=O)(CCC(N)C(=O)O)Oc1cccc(CCC(=O)O)c1 (stereo not shown) [Example 16, 2-amino-4-{[3-(2-carboxyethyl)phenyl](methyl)phosphono}butanoic Acid]",71,7.67,,"plot of log kon (human GGT) against pKa of aryl group, FIG. 4 [2]: deviate upward"
"COc1ccc(OP(=O)(CCC(N)C(=O)O)OC)cc1 (stereo not shown) [Example 2, 2-amino-4-[(4-methoxyphenyl)(methyl)phosphono]butanoic Acid]",19.5,0.16,0,
"COP(=O)(CCC(N)C(=O)O)Oc1ccc(C)cc1 (stereo not shown) [Example 1, 2-amino-4-[methyl(4-methylphenyl)phosphono]butanoic Acid]",23,0.24,0,
"N[C@H](C(=O)O)[C@@H]1CC(Cl)=NO1 [Comparative Example 1, (aS, 5S)-acivicin, reference compound]",4210 ± 10,0.40 ± 0.02,,
"COP(=O)(CCC(N)C(=O)O)Oc1ccc(C(F)(F)F)cc1 (stereo not shown) [Example 5, 2-amino-4-[methyl(4-trifluoromethylphenyl)phosphono]butanoic acid]",2800,11.5,0,
"COP(=O)(CCC(N)C(=O)O)Oc1ccc2c(C)cc(=O)oc2c1 (stereo not shown) [Example 8, 2-amino-4-[methyl(4-methylumbelliferyl)phosphono]butanoic Acid]",15700,2400,6.0,"mode of inhibition of E-coli GGT (activity plot, FIG. 1) ([1]; AMC fluorescence against time): irreversibly inactivate; mode of inhibition of human GGT (activity plot, FIG. 2) ([2]; AMC fluorescence against time): irreversibly inactivate; plot of log kon (human GGT) against pKa of aryl group, FIG. 4 [2]: deviate upward"
"COP(=O)(CCC(N)C(=O)O)Oc1ccc([N+](=O)[O-])cc1 (stereo not shown) [Example 7, 2-amino-4-[methyl(4-nitrophenyl)phosphono]butanoic Acid]",35000,125.1,48.6,"Hydrolysis ratio (%) ([4]; 0.1 N CF3COOD, pH <1, 23.5° C.): 0%; Hydrolysis ratio (%) ([4]; 0.1 N CH3COOD, pH 2.9, 23.5° C.): 40%; Hydrolysis ratio (%) ([4]; 0.1 N DCl + MeOH, pH <1, 23.5° C.): 0%; Hydrolysis ratio (%) ([4]; 0.1 N DCl, pH <1, 23.5° C.): 0%; Hydrolysis ratio (%) ([4]; 0.1 N Na2CO3, pH 11.6, 23.5° C.): 100%; Hydrolysis ratio (%) ([4]; 0.1 N NaHCO3, pH 8.3, 23.5° C.): 100%; Hydrolysis ratio (%) ([4]; D2O, pH 7, 23.5° C.): 49%; hydrolysis ratio in words ([4]; under the acidic condition): low; hydrolysis ratio in words ([4]; under the alkaline condition): high"
"COP(=O)(CCC(N)C(=O)O)Oc1cccc(C(=O)O)c1 (stereo not shown) [Example 15, 2-amino-4-[3-carboxyphenyl(methyl)phosphono]butanoic Acid]",450,1.63,,
"CCC(OP(=O)(CCC(N)C(=O)O)Oc1ccccc1)C(=O)NCC(=O)O (stereo not shown) [Example 10, 2-amino-4-[1-[N-(carboxymethyl)carbamoyl]propyl(phenyl)phosphono]butanoic acid]",80.9,74.5,,"plot of log kon (human GGT) against pKa of aryl group, FIG. 4 [2]: deviate upward; Hydrolysis ratio (%) ([3]; stored in water at room temperature for 112 hours): 37.5* %"
"CCCCOP(=O)(CCC(N)C(=O)O)Oc1ccccc1 (stereo not shown) [Example 9, 2-amino-4-[butyl(phenyl)phosphono]butanoic Acid]",9.0,0.023,0,
"COP(=O)(CCC(N)C(=O)O)Oc1ccc(C#N)cc1 (stereo not shown) [Example 6, 2-amino-4-[(4-cyanophenyl)(methyl)phosphono]butanoic Acid]",12000,45.9,12.3,
"COP(=O)(CCC(N)C(=O)O)Oc1cccc([N+](=O)[O-])c1 (stereo not shown) [Example 14, 2-amino-4-[methyl(3-nitrophenyl)phosphono]butanoic Acid]",5100,49,,
"COP(=O)(CCC(N)C(=O)O)Oc1ccc(Cl)cc1 (stereo not shown) [Example 4, 2-amino-4-[(4-chlorophenyl)(methyl)phosphono]butanoic Acid]",607,5.0,0,
"NC(CCP(=O)(Oc1ccccc1)Oc1ccccc1)C(=O)O (stereo not shown) [Example 17, 2-amino-4-(diphenylphosphono)butanoic Acid]",28,0.41,,
"COP(=O)(CCC(N)C(=O)O)Oc1ccc(CC(=O)O)cc1 (stereo not shown) [Example 12, 2-amino-4-{[4-(carboxymethyl)phenyl](methyl)phosphono}butanoic Acid]",200,0.33,,
"COP(=O)(CCC(N)C(=O)O)Oc1ccccc1 (stereo not shown) [Example 3, 2-amino-4-[methyl(phenyl)phosphono]butanoic Acid]",115,0.40,0,
